Experimental data as given in the supplement of paper PMC10307832.

Tests used:
Assay in all cases: relative viability (nuclei count vs DMSO), 5 days (fraction); higher = more cells survive
BAY61-3606 + Alpelisib = compound: COC1=C(C=C(C=C1)C2=CC3=NC=CN3C(=N2)NC4=C(C=CC=N4)C(=O)N)OC [BAY61-3606] + Cc1nc(NC(=O)N2CCC[C@H]2C(N)=O)sc1-c1ccnc(C(C)(C)C(F)(F)F)c1 [Alpelisib] (partner 2 µM)
How it was run: (§1)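 Values are medians from duplicate plates. Each reflects relative viability, defined as the nuclei count of treated wells over that of vehicle wells. Lung cancer cell lines in 1536-well plates were pin-tool dosed one day after seeding with one drug alone or with a fixed anchor-drug dose plus five library-drug doses (not always all listed) in √10 steps, then fixed, stained and imaged at 4× after 5 days.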

[1] = compound: COc1cccc2c1C(=O)c1c(O)c3c(c(O)c1C2=O)C[C@@](O)(C(=O)CO)C[C@@H]3O[C@H]1C[C@H](N)[C@H](O)[C@H](C)O1 [Doxorubicin] + CC(=O)c1c(C)c2cnc(Nc3ccc(N4CCNCC4)cn3)nc2n(C2CCCC2)c1=O [Palbociclib] (partner 0.5 µM)
How it was run: as §1

Doxorubicin + Bortezomib = compound: COc1cccc2c1C(=O)c1c(O)c3c(c(O)c1C2=O)C[C@@](O)(C(=O)CO)C[C@@H]3O[C@H]1C[C@H](N)[C@H](O)[C@H](C)O1 [Doxorubicin] + CC(C)C[C@H](NC(=O)[C@H](Cc1ccccc1)NC(=O)c1cnccn1)B(O)O [Bortezomib] (partner 0.002 µM)
How it was run: as §1

Doxorubicin + AZD7762 = compound: COc1cccc2c1C(=O)c1c(O)c3c(c(O)c1C2=O)C[C@@](O)(C(=O)CO)C[C@@H]3O[C@H]1C[C@H](N)[C@H](O)[C@H](C)O1 [Doxorubicin] + NC(=O)Nc1cc(-c2cccc(F)c2)sc1C(=O)N[C@H]1CCCNC1 [AZD7762] (partner 0.2 µM)
How it was run: as §1

Cell Line | relative viability (BAY61-3606 + Alpelisib; first compound 0.02 µM) | relative viability (BAY61-3606 + Alpelisib; first compound 0.06325 µM) | relative viability (BAY61-3606 + Alpelisib; first compound 0.2 µM) | relative viability (BAY61-3606 + Alpelisib; first compound 0.6325 µM) | relative viability (BAY61-3606 + Alpelisib; first compound 2 µM) | relative viability ([1]; first compound 0.001 µM) | relative viability ([1]; first compound 0.003162 µM) | relative viability ([1]; first compound 0.01 µM) | relative viability ([1]; first compound 0.03162 µM) | relative viability ([1]; first compound 0.1 µM) | relative viability (Doxorubicin + Bortezomib; first compound 0.001 µM) | relative viability (Doxorubicin + Bortezomib; first compound 0.003162 µM) | relative viability (Doxorubicin + Bortezomib; first compound 0.01 µM) | relative viability (Doxorubicin + Bortezomib; first compound 0.03162 µM) | relative viability (Doxorubicin + Bortezomib; first compound 0.1 µM) | relative viability (Doxorubicin + AZD7762; first compound 0.001 µM) | relative viability (Doxorubicin + AZD7762; first compound 0.003162 µM) | relative viability (Doxorubicin + AZD7762; first compound 0.01 µM) | relative viability (Doxorubicin + AZD7762; first compound 0.03162 µM) | relative viability (Doxorubicin + AZD7762; first compound 0.1 µM)
BEN | 1.23 | 0.831 | 1.24 | 1.24 | 0.958 | 0.454 | 0.458 | 0.46 | 0.441 | 0.465 | 1.01 | 1.05 | 0.821 | 0.632 | 0.74 | 0.96 | 0.65 | 0.82 | 0.562 | 0.624
EMC-BAC-2 | 0.817 | 0.837 | 0.75 | 0.85 | 0.802 | 0.524 | 0.465 | 0.442 | 0.383 | 0.403 | 1.11 | 1.1 | 0.997 | 0.518 | 0.451 | 1.11 | 1.03 | 0.89 | 0.636 | 0.691
LXF-289 | 0.991 | 1.09 | 1.03 | 1.14 | 1.05 | 0.589 | 0.625 | 0.549 | 0.634 | 0.607 | 1.01 | 1.02 | 0.998 | 0.996 | 0.926 | 1.04 | 1.11 | 1.09 | 1.2 | 1.06
ABC-1 | 1.06 | 1.14 | 1.15 | 0.968 | 1.06 | 0.651 | 0.712 | 0.543 | 0.471 | 0.368 | 0.304 | 0.324 | 0.364 | 0.273 | 0.251 | 0.443 | 0.937 | – | 0.655 | 0.6
NCI-H1355 | 0.944 | 0.811 | 0.791 | 0.713 | 0.534 | 0.423 | 0.432 | 0.388 | 0.38 | 0.392 | 1.08 | 1.32 | 1.14 | 1.28 | 1.29 | 0.838 | 0.741 | 0.741 | 0.673 | 0.72
NCI-H3122 | 0.797 | 0.879 | 0.868 | 0.833 | 0.69 | 0.182 | 0.189 | 0.187 | 0.14 | 0.188 | 1.04 | 0.97 | 1.02 | 1.01 | 0.957 | 0.964 | 1.03 | 0.894 | 0.989 | 0.952
HARA | 0.867 | 0.88 | 0.877 | 0.83 | 0.561 | 0.234 | 0.256 | 0.259 | 0.236 | 0.263 | 1.1 | 0.993 | 1.11 | 1.08 | 1 | 1.09 | 0.25 | 0.38 | 0.267 | 0.377
NCI-H2126 | 0.784 | 0.769 | 0.705 | 0.739 | 0.671 | 0.349 | 0.347 | 0.371 | 0.345 | 0.386 | 1.08 | 1.12 | 1.1 | 1.1 | 1.13 | 0.913 | 0.921 | 0.966 | 0.985 | 1
NCI-H1915 | 1.07 | 1.08 | 1.06 | 1.03 | 0.93 | 0.581 | 0.536 | 0.549 | 0.483 | 0.543 | 0.994 | 0.943 | 0.927 | 0.94 | 1 | 0.694 | 0.761 | 0.644 | 0.688 | 0.714
PC-14 | 0.996 | 0.995 | 0.929 | 1.06 | 0.841 | 0.532 | 0.501 | 0.312 | 0.194 | 0.0531 | 0.775 | 0.964 | 0.861 | 0.979 | 0.94 | 0.387 | 0.366 | 0.519 | 0.259 | 0.15
201T | 1.07 | 1.03 | 1.05 | 1.1 | 1.09 | 0.351 | 0.321 | 0.345 | 0.349 | 0.354 | 1.06 | 0.991 | 1.14 | 1.15 | 1.05 | 0.626 | 0.756 | 0.642 | 0.556 | 0.577
HCC-78 | 0.405 | 0.366 | 0.453 | 0.362 | 0.358 | 0.46 | 0.526 | 0.449 | 0.488 | 0.453 | 0.322 | 0.532 | 0.419 | 0.392 | 0.562 | 0.535 | 0.606 | 0.703 | 0.636 | 0.503
NCI-H727 | 0.611 | 0.615 | 0.609 | 0.721 | 0.488 | 0.655 | 0.661 | – | 0.577 | 0.62 | 0.794 | 0.985 | 0.656 | 0.658 | 0.613 | 0.675 | 0.575 | – | 0.497 | 0.573
H3255 | 0.708 | 0.635 | 0.673 | 0.874 | 0.735 | 0.306 | 0.315 | 0.306 | 0.348 | 0.263 | 0.675 | 0.889 | 0.856 | 0.589 | 0.306 | 0.859 | 0.818 | 0.821 | 0.964 | 0.764
NCI-H838 | 0.988 | 0.963 | 0.982 | 1.02 | 0.888 | 0.254 | 0.234 | 0.229 | 0.222 | 0.184 | 0.89 | 1.03 | 0.967 | 0.384 | 0.17 | 0.921 | 0.934 | 0.913 | 0.919 | 0.749
